Among the data in US8653109B2, “Substituted bipyridine derivatives and their use as adenosine receptor ligands” (Bayer Intellectual Property GmbH, priority 2006, dated 2014) are EC50 values, retold here.

As a reminder, the EC50 is the midpoint of the concentration-response curve. The low end stands for a more potent agent, the high end for a less potent agent.

What all share (format): cell-based
In assay [1] the target is T1, adenosine A2a receptor (Homo sapiens, UniProt P29274).
T1 construct: expressed in transfected cells; host or cells: CHO (Chinese Hamster Ovary)
T1 sequence (P29274 whole entry): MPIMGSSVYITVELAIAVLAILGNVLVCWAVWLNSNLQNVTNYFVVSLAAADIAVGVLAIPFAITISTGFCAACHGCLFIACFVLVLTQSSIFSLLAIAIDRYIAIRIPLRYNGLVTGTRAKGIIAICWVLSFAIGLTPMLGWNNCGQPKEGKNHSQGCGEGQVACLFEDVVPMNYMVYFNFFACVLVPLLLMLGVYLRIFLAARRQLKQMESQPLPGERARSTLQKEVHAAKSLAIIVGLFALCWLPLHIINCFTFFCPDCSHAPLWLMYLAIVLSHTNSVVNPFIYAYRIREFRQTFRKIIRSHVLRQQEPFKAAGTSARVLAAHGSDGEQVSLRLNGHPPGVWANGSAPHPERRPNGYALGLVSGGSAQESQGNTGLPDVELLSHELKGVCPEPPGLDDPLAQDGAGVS
Briefly: Indirect determination of adenosine agonism by way of gene expression (cAMP-dependent luciferase), A2a cells. Particulars: CHO cells stably transfected with A2a receptor cDNA; 50% of the maximum stimulation of luciferase. From the text: (§1) B-1. Indirect Determination of the Adenosine Agonism by Way of Gene Expression
(§2) Cells of the CHO (Chinese Hamster Ovary) permanent cell line are transfected stably with the cDNA for the adenosine receptor subtypes A1, A2a and A2b. The adenosine A1 receptors are coupled to the adenylate cyclase by way of Gi proteins, while the adenosine A2a and A2b receptors are coupled by way of Gs proteins. In correspondence with this, the formation of cAMP in the cell is inhibited or stimulated, respectively. After that, expression of the luciferase is modulated by way of a cAMP-dependent promoter. The luciferase test is optimized, with the aim of high sensitivity and reproducibility, low variance and good suitability for implementation on a robot system, by varying several test parameters, such as cell density, duration of the growth phase and the test incubation, forskolin concentration and medium composition. The following test protocol is used for pharmacologically characterizing cells and for the robot-assisted substance screening:
(§3) The stock cultures are grown, at 37° C. and under 5% CO2, in DMEM/F12 medium containing 10% FCS (foetal calf serum) and in each case split 1:10 after 2-3 days. The test cultures are seeded in 384-well plates with 2000 cells per well and grown at 37° C. for approx. 48 hours. The medium is then replaced with a physiological sodium chloride solution (130 mM sodium chloride, 5 mM potassium chloride, 2 mM calcium chloride, 20 mM HEPES, 1 mM magnesium chloride hexahydrate, 5 mM sodium bicarbonate, pH 7.4). The substances to be tested, which are dissolved in DMSO, are pipetted into the test cultures (maximum final concentration of DMSO in the test mixture: 0.5%) in a dilution series of from 5×10^−11M to 3×10^−6M (final concentration). 10 minutes later, forskolin is added to the A1 cells and all the cultures are subsequently incubated at 37° C. for four hours. After that, 35 μl of a solution which is composed of 50% lysis reagent (30 mM disodium hydrogenphosphate, 10% glycerol, 3% TritonX100, 25 mM TrisHCl, 2 mM dithiotreitol (DTT), pH 7.8) and 50% luciferase substrate solution (2.5 mM ATP, 0.5 mM luciferin, 0.1 mM coenzyme A, 10 mM tricine, 1.35 mM magnesium sulphate, 15 mM DTT, pH 7.8) are added to the test cultures, which are shaken for approx. 1 minute and the luciferase activity is measured using a camera system. The EC50 values are determined, i.e., the concentrations at which 50% of the luciferase answer is inhibited in the case of the A1 cell, and, respectively, 50% of the maximum stimulation with the corresponding substance is achieved in the case of the A2b and A2a cells. […] Pharmacol., 357 (1998), 1-9).

For assay [2], the target named is T2, adenosine A1 receptor (Homo sapiens, UniProt P30542).
T2 construct: expressed in transfected cells; host or cells: CHO (Chinese Hamster Ovary)
T2 sequence (P30542 1-326): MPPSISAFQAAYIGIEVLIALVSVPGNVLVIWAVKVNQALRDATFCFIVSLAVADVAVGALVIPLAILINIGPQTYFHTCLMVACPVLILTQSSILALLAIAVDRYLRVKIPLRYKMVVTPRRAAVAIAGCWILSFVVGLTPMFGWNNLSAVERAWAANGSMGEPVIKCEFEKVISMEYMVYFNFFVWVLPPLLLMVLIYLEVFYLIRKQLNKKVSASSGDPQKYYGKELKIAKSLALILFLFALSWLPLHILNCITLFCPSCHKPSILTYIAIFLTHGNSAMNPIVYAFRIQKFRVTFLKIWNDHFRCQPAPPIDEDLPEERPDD
The assay is described as follows: Indirect determination of adenosine agonism by way of gene expression (cAMP-dependent luciferase), A1 cells. Particulars: CHO cells stably transfected with A1 receptor cDNA; 1 μM forskolin; concentration at which 50% of the luciferase answer is inhibited.
From the text: as §1, §2, §3

Assay [3] has as its target T3, adenosine A2b receptor (Homo sapiens, UniProt P29275).
T3 construct: expressed in transfected cells; host or cells: CHO (Chinese Hamster Ovary)
T3 sequence (P29275 1-332): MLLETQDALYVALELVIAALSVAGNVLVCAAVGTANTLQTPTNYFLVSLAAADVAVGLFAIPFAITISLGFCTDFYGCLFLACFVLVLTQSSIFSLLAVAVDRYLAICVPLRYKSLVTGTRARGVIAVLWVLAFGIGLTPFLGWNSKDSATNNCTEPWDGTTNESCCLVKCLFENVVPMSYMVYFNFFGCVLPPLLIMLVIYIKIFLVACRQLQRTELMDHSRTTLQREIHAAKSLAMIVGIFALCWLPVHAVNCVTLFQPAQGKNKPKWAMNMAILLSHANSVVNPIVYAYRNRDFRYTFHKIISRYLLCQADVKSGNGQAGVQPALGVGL
Briefly: Indirect determination of adenosine agonism by way of gene expression (cAMP-dependent luciferase), A2b cells. Particulars: CHO cells stably transfected with A2b receptor cDNA; 50% of the maximum stimulation of luciferase.
From the text: as §1, §2, §3

Regarding `N#Cc1c(N)nc(SCc2coc(-c3ccc(Cl)cc3)n2)c(C#N)c1-c1ccc(OCCO)nc1` [Example 31], the EC50 in assay [1] stood at 101 nM; in assay [2] it was 0.09 nM; in assay [3] it was 235 nM.
As for `Cc1cc(CSc2nc(N)c(C#N)c(-c3ccc(OCCO)nc3)c2C#N)nc(Nc2ccc(F)cc2)n1` [Example 21], the figures for the half-maximal effective concentration (EC50) in assay [1], in assay [2] and in assay [3] were over 3000 nM, 3.6 nM and over 3000 nM, respectively.
For the compound `Cc1oc(-c2ccc(Cl)cc2)nc1CSc1nc(N)c(C#N)c(-c2ccc(OCCO)nc2)c1C#N` [Example 37], the half-maximal effective concentration (EC50) in assay [1] is 1750 nM; in assay [2], 0.3 nM; in assay [3], 1260 nM.
On to `N#Cc1c(N)nc(SCc2csc(Nc3ccc(F)c(Cl)c3)n2)c(C#N)c1-c1ccc(OCCO)nc1` [Example 1, 2′-Amino-6′-[({2-[(3-chloro-4-fluorophenyl)amino]-1,3-thiazol-4-yl}methyl)thio]-6-(2-hydroxyethoxy)-3,4′-bipyridine-3′,5′-dicarbonitrile], for which the EC50 in assay [1] came to 2180 nM; in assay [2] it was 0.8 nM; in assay [3], 5.8 nM.
Take `N#Cc1c(N)nc(SCc2cscn2)c(C#N)c1-c1ccc(OCCO)nc1` [Example 13]: the 50% effective concentration (EC50) in assay [1] is 21 nM; in assay [2], 0.09 nM; in assay [3], 5.5 nM.
With `N#Cc1c(SCc2csc(-c3ccc(Cl)cc3)n2)nc(N2CCCC2)c(C#N)c1-c1ccc(OCCO)nc1` [Example 44, 2′-({[2-(4-Chlorophenyl)-1,3-thiazol-4-yl]methyl}thio)-6-(2-hydroxyethoxy)-6′-pyrrolidin-1-yl-3,4′-bipyridine-3′,5′-dicarbonitrile], the EC50 in assay [1] was 547 nM; in assay [2] it was 0.08 nM; in assay [3] it was 95 nM.
In the case of `N#Cc1c(N)nc(SCc2cccc(Nc3ccncc3)n2)c(C#N)c1-c1ccc(OCCO)nc1` [Example 22], the results for the EC50 in assay [1], in assay [2] and in assay [3] were 120 nM, 0.6 nM and 117 nM, respectively.
In the same order, the values of `N#Cc1c(N)nc(SCc2coc(-c3ccc(Cl)cc3)n2)c(C#N)c1-c1ccc(OC[C@@H](O)CO)nc1` [Example 42, 2′-Amino-6′-({[2-(4-chlorophenyl)-1,3-oxazol-4-yl]methyl}thio)-6-{[(2S)-2,3-dihydroxypropyl]-oxy}-3,4′-bipyridine-3′,5′-dicarbonitrile] are 355 nM, 0.09 nM and 516 nM.
The corresponding values for `N#Cc1c(N)nc(SCc2coc(-c3ccc(Cl)cc3)n2)c(C#N)c1-c1ccc(OC[C@H](O)CO)nc1` [Example 43, 2′-Amino-6′-({[2-(4-chlorophenyl)-1,3-oxazol-4-yl]methyl}thio)-6-{[(2R)-2,3-dihydroxypropyl]-oxy}-3,4′-bipyridine-3′,5′-dicarbonitrile] are 72 nM, 0.04 nM and 185 nM.
The corresponding values for `N#Cc1c(N)nc(SCc2csc(Nc3cccc(F)c3)n2)c(C#N)c1-c1ccc(OCCO)nc1` [Example 5] are 190 nM, 0.6 nM and 8.5 nM.
As for `N#Cc1c(N)nc(SCc2csc(-c3ccc(Cl)cc3)n2)c(C#N)c1-c1ccc(OCCO)nc1` [Example 19, 2′-Amino-6′-({[2-(4-chlorophenyl)-1,3-thiazol-4-yl]methyl}thio)-6-(2-hydroxyethoxy)-3,4′-bipyridine-3′,5′-dicarbonitrile], the half-maximal effective concentration (EC50) was determined as 663 nM in assay [1], 0.04 nM in assay [2] and 234 nM in assay [3].
`N#Cc1c(N)nc(SCc2csc(Nc3ccc(F)cc3)n2)c(C#N)c1-c1ccc(OCCO)nc1` [Example 3]: the EC50 in assay [1] stood at 123 nM; in assay [2], 0.2 nM; in assay [3], 3.7 nM.
Turning to `N#Cc1c(N)nc(SCc2ncon2)c(C#N)c1-c1ccc(OCCO)nc1` [Example 25], the figures for the half-maximal effective concentration (EC50) in assay [1], in assay [2] and in assay [3] were over 3000 nM, 4.1 nM and over 3000 nM, respectively.
Take `N#Cc1c(N)nc(SCc2csc(Nc3ccc(F)c(F)c3)n2)c(C#N)c1-c1ccc(OCCO)nc1` [Example 11]: the concentration giving a half-maximal response (EC50) turned out to be 150 nM in assay [1], 0.4 nM in assay [2] and 5.7 nM in assay [3].
In the same order, the values of `N#Cc1c(NCCO)nc(SCc2csc(-c3ccc(Cl)cc3)n2)c(C#N)c1-c1ccc(OCCO)nc1` [Example 46] are 266 nM, 0.04 nM and 166 nM.
